Experiments:
α5^+ HT29 cells = assay: Cell adhesion assay, adhesion to fibronectin; format: cell-based, human
Source text: (§1) HT29 integrin α5β1^+ cells, integrin α5β1^− colon carcinoma cells (Varner et al., Mol. Biol. Cell 6:725–740 (1995)), and chick embryo fibroblasts (CEF's) were maintained in DMEM high glucose supplemented with 10% fetal bovine serum (FBS) and gentamycin. Human umbilical vein endothelial cells (HUVEC's) were maintained in M199 medium containing sodium bicarbonate, HEPES, heparin, endothelial cell growth supplement, 20% FBS and gentamycin. Culture media and reagents were from Irvine Scientific (Irvine, Calif.).
(§2) The wells of 48 well culture dishes (Costar, Inc.) were coated with 1 μg/ml vitronectin, 2 μg/ml fibronectin (chick embryo fibroblasts and HUVEC's) or 10 μg/ml fibronectin (HT29-α5^+ cells) for 1 hr at 37° C., then blocked with 2% heat denatured BSA in PBS for 1 hr. Fifty thousand cells in 250 μl of adhesion buffer were added to triplicate wells containing 250 μl of a solution of 50 μg/ml of an anti-α5β1 function blocking antibody (NKI-SAM-1, JBS5 or IIA1), 50 μg/ml of an anti-α5β1 non-function blocking antibody (HA5 or VC5; Pharmingen, Inc.; San Diego Calif.), 10 μM cyclic peptides (Koivunen et al., J. Biol. Chem. 268:20205–20210 (1993); Koivunen et al., J. Cell Biol. 124:373380 (1994)), 0–10 μM SJ749 ((S)-2-{(2,4,6-trimethylphenyl)sulfonyl}amino-3{7-benzyloxycarbonyl-8-(2-pyridinylaminomethyl)-1-oxa-2,7-diazaspiro-{4,4}-non-2-en-3-yl}carbonylamino}propionic acid)), 50 μg/ml of LM609, an anti-αVβ3 function blocking antibody, 50 μg/ml P4C10, an anti-β1 function blocking antibody, 50 μg/ml of an anti-fibronectin cell binding domain monoclonal antibody or 50 μg/ml of an anti-fibronectin N-terminus monoclonal antibody in adhesion buffer (HEPES buffered Hanks balanced salt solution, HBSS, containing 1% BSA, 2 mM MgCl2, 2 mM CaCl2 and 0.2 mM MnCl2).
Cells were allowed to adhere to dishes for 20 min at 37° C. Nonadherent cells were removed by washing each well four times with 500 μl of warm adhesion buffer. […] Crystal violet was extracted by incubation for 15 min in 10% acetic acid and absorbance at 562 nm determined as an indicator of number of cells bound. […]

[1] = system: Human umbilical vein endothelial cells (HUVEC's); assay: Cell adhesion assay, adhesion to fibronectin; format: cell-based
Source text: as §1, §2
(§3) Cells were allowed to adhere to dishes for 20 min at 37° C. Nonadherent cells were removed by washing each well four times with 500 μl of warm adhesion buffer. Adherent cells were then fixed for 15 min with 3.7% paraformaldehyde in PBS and stained with a 2% crystal violet solution. After extensive water washing to remove excess crystal violet, plates were dried overnight. Crystal violet was extracted by incubation for 15 min in 10% acetic acid and absorbance at 562 nm determined as an indicator of number of cells bound. Each experiment was performed in triplicate, with triplicate samples per condition.

[2] = system: chick embryo fibroblasts (CEF's); assay: Cell adhesion assay, adhesion to fibronectin; format: cell-based
Source text: as §1, §2, §3

[3] = system: α5^+ HT29 colon carcinoma cells, CEF's and HUVEC's; assay: Cell adhesion assay, attachment to vitronectin; format: cell-based; conditions: vitronectin coating
Source text: as §1
The wells of 48 well culture dishes (Costar, Inc.) were coated with 1 μg/ml vitronectin, 2 μg/ml fibronectin (chick embryo fibroblasts and HUVEC's) or 10 μg/ml fibronectin (HT29-α5^+ cells) for 1 hr at 37° C., then blocked with 2% heat denatured BSA in PBS for 1 hr. […]
Cells were allowed to adhere to dishes for 20 min at 37° C. […] Crystal violet was extracted by incubation for 15 min in 10% acetic acid and absorbance at 562 nm determined as an indicator of number of cells bound. […]

[4] = system: bFGF-induced angiogenesis on the chick CAM; assay: In ovo chick CAM angiogenesis assay, bFGF stimulated; format: in vivo
Source text: (§4) Ten day old embryonated chicken eggs (McIntyre Poultry; Ramona Calif.) were candled to illuminate blood vessels under the shell and an area with a minimum of small blood vessels is identified. The CAM was dropped away from the eggshell in this area by grinding a small hole in the mineralized shell and applying pressure to the underlying inner shell membrane. This procedure caused an air pocket to shift from the wide end of the egg to the identified area and forcing a circular region of the CAM approximately 2 cm in diameter to drop away from the shell. A window was cut in the egg shell and a cortisone acetate pre-treated filter disc 5 mm in diameter that had been saturated in 1 μg/ml bFGF, VEGF, TNFα, IL-8 (Genzyme, Inc.; Cambridge Mass.) or saline was placed on the CAM. The window in the shell was sealed with adhesive tape and the egg was incubated for four days.
(§5) Anti-fibronectin antibodies (25 μg in 25 μl) also were applied topically to the CAM.
(§6) Fibronectin, vitronectin and fibronectin fragments (59 pmol in a final volume of 25 μl) were applied to stimulated or unstimulated CAM's. Peptide or small molecule antagonists of α5β1 (at a final serum concentration of 0–25 μM) also were injected intravenously into the chick circulation 24 hr later. CAM's were harvested on the fourth day of stimulation. Blood vessel branch points in the 5 mm filter disk area were counted at 30× magnification in a blinded fashion as a size-independent quantitative indicator of vascular sprouting in response to growth factors. Angiogenesis is characterized by the sprouting of new vessels in response to growth factors. Thus, counting of blood vessel branch points is a useful quantitative means of obtaining an angiogenic index (Brooks et al., In “Methods in Molecular Biology” (Humana Press 1999). At least ten embryos were used per treatment group. Each experiment was performed a minimum of three times.
(§7) Data was evaluated in terms of average number of blood vessel branch points per treatment group +/−standard error of measurement . Statistical analyses were performed using Student's t-test. Representative CAMS from each treatment group were photographed at 10X magnification. In some cases, CAM tissue excised from the egg was frozen in OCT (Baxter; McGraw Park Ill.) in liquid nitrogen, cut into 5 μm sections, air dried and processed for immunohistochemical analysis as described in Example I, except without fixation.

[5] = system: HT29 colon carcinoma cells lacking α5β1 expression; assay: Chick CAM tumor assay, HT29; format: in vivo; conditions: HT29 tumors on CAM
Procedure: The chick CAM tumor assay was performed by placing ten million tumor cells on the surface of a CAM, and culturing the cells for one week. The resulting tumors were excised and cut into 50 mg fragments. […] Forty-eight hours later, CAM's were excised from the egg and the number of blood vessels entering the tumors were counted (as vessel branch points).
Data was presented as mean blood vessel number per treatment group (+/− standard error of measurement). Each treatment group incorporated at least ten tumors per experiment. Representative tumors were photographed at 10× magnification. Tumors were excised from the egg and tumor weights were determined for each tumor Data was presented as mean tumor weight per treatment group (+/− standard error of measurement). Statistical analyses were performed using Student's t-test.
HT29 colon carcinoma cells lacking α5β1 expression were grown on the CAM's of 10-day old embryos. These tumor cells secrete several angiogenic growth factors, including VEGF, TGFα, TGFβ, TNFα, and IL-8 (Anzano et al., Cancer Res. 49:2898–2904 (1989); Varner et. al., supra, 1995; Ellis et al., J. Biol. Chem. 273:1052–1057 (1998)). Integrin α5β1 negative tumor cells were used to distinguish the potential anti-tumor effects from anti-vasculature effects of integrin α5β1 antagonists.

HUVEC's = assay: Cell migration assay on fibronectin; format: cell-based, human
Procedure: The lower side of 8 μm pore transwell inserts (Costar, Inc.) were coated with 2 μg/ml of fibronectin, collagen (Collaborative Biomedical Products; Bedford Mass.) or no protein for 1 hr and were blocked with 2% BSA in PBS for 1 hr. The inserts then were placed into 24 well culture dishes containing 500 μl migration buffer in the lower chamber. Twenty-five thousand HUVEC's in 50 μl of migration buffer (HEPES buffered M199 medium containing 1% BSA, 2 mM MgCl2, 2 mM CaCl2 and 0.2 mM MnCl2) were added to the upper chamber of duplicate inserts containing 50 μl of a solution of 50 μg/ml of anti-α5β1 function blocking antibody (NKI-SAM-1, JBS5 or IIA1), 50 μg/ml of anti-α5β1 non-function blocking antibody (HA5 or VC5), or 50 μg/ml of LM609 (an anti-αVβ3 function blocking antibody) in migration buffer, or migration buffer alone.
Cells were allowed to migrate from the upper to the lower chamber for 4 hr at 37° C. Nonmigratory cells were removed from the upper surface by wiping the upper side with an absorbant tip, and cells that had migrated to the lower side of the transwell insert were fixed for 15 min with 3.7% paraformaldehyde in PBS, then stained with a 2% crystal violet solution. After extensive water washing to remove excess crystal violet, the number of cells that had migrated were counted in three representative high power (200×) fields per insert. […]

[6] = system: VEGF-induced angiogenesis on the chick CAM; assay: In ovo chick CAM angiogenesis assay, VEGF stimulated; format: in vivo; conditions: for effect of applied matrix protein on the angiogenic effect of VEGF: matrix protein applied to VEGF stimulated CAM's
Source text: as §4, §5, §6, §7

[7] = system: growth factor-induced angiogenesis in chick embryos; assay: Chick CAM angiogenesis assay, systemic administration, growth factor not specified; format: in vivo; conditions: chick embryo, read-out: amount inhibiting angiogenesis by 50% (converted)
Source text: (§8) Ten day old embryonated chicken eggs (McIntyre Poultry; Ramona Calif.) were candled to illuminate blood vessels under the shell and an area with a minimum of small blood vessels is identified. The CAM was dropped away from the eggshell in this area by grinding a small hole in the mineralized shell and applying pressure to the underlying inner shell membrane. This procedure caused an air pocket to shift from the wide end of the egg to the identified area and forcing a circular region of the CAM approximately 2 cm in diameter to drop away from the shell. […]
(§9) Fibronectin, vitronectin and fibronectin fragments (59 pmol in a final volume of 25 μl) were applied to stimulated or unstimulated CAM's. […] Blood vessel branch points in the 5 mm filter disk area were counted at 30× magnification in a blinded fashion as a size-independent quantitative indicator of vascular sprouting in response to growth factors. […] Thus, counting of blood vessel branch points is a useful quantitative means of obtaining an angiogenic index (Brooks et al., In “Methods in Molecular Biology” (Humana Press 1999). At least ten embryos were used per treatment group. Each experiment was performed a minimum of three times.
(§10) Data was evaluated in terms of average number of blood vessel branch points per treatment group +/−standard error of measurement . […]

[8] = system: blood vessels of unstimulated CAM's; assay: In ovo chick CAM angiogenesis assay, unstimulated CAM's; format: in vivo; conditions: absence of growth factor
Source text: as §8, §9, §10

[9] = matrix protein applied to bFGF stimulated CAM's

Row | Molecule | effect on adhesion to fibronectin (α5^+ HT29 cells) | effect on adhesion to fibronectin [1] | effect on adhesion to fibronectin [2] | effect on cell attachment to vitronectin [3] | effect on bFGF-induced angiogenesis ([4]; bFGF stimulated CAM) | effect on tumor size [5] | effect on endothelial cell migration on fibronectin (HUVEC's) | inhibition of bFGF-induced angiogenesis (blood vessel branch points) ([4]; bFGF stimulated CAM) | effect on VEGF angiogenesis ([6]; VEGF stimulated CAM) | tumors smaller than control treated tumors [5] [%] | IC50 [7] [nM] | enhancement of growth factor stimulated angiogenesis [4, 9] | effect of applied matrix protein on the angiogenic effect of VEGF [6] | effect on blood vessels / angiogenesis of unstimulated CAM's [8] | effect of applied matrix protein on bFGF stimulated angiogenesis [4, 9]
1 | CATAERWRC ["scrambled" control peptide] | little effect | little effect | little effect | little effect | did not inhibit | continued to increase in size |  |  |  |  |  |  |  |  | 
2 | CRRETAWAC | significantly inhibited | significantly inhibited | significantly inhibited |  |  | induced tumor regression | interfered | 90+/−6% | failed to block | 31 | 60 |  |  |  | 
3 | fibronectin: intact human fibronectin |  |  |  |  |  |  |  |  |  |  |  | at least 46+/−11% | did not potentiate | neither fibronectin nor vitronectin promoted angiogenesis | 
4 | vitronectin: vitronectin, extracellular matrix protein applied to CAM's (protein) DQESCKGRCTEGFNVDKKCQCDELCSYYQSCCTDYTAECKPQVTRGDVFTMPEDEYTVYDDGEEKNNATVHEQVGGPSLTSDLQAQSKGNPEQTPVLKPEEEAPAPEVGASKPEGIDSRPETLHPGRPQPPAEEELCSGKPFDAFTDLKNGSLFAFRGQYCYELDEKAVRPGYPKLIRDVWGIEGPIDAAFTRINCQGKTYLFKGSQYWRFEDGVLDPDYPRNISDGFDGIPDNVDAALALPAHSYSGRERVYFFKGKQYWEYQFQHQPSQEECEGSSLSAVFEHFAMMQRDSWEDIFELLFWGRTSAGTRQPQFISRDWHGVPGQVDAAMAGRIYISGMAPRPSLAKKQRFRHRNRKGYRSQRGHSRGRNQNSRRPSRATWLSLFSSEESNLGANNYDDYRMDWLVPATCEPIQSVFFFSGDKYYRVNLRTRRVDTVDPPYPRSIAQYWLGCPAPGHL |  |  |  |  |  |  |  |  |  |  |  |  | did not potentiate | neither fibronectin nor vitronectin promoted angiogenesis | no effect

Source: US7056506B2, “Methods for detecting and inhibiting angiogenesis” (The Regents of the University of California, priority 1998, dated 2006)
